Experimental data from patent publication US20240148821A1, “PHARMACEUTICAL USE OF CYCLIC PEPTIDE COMPOUND” (CHUGAI SEIYAKU KABUSHIKI KAISHA, priority 2021, published 2024).
Numbered stars: 1 amine (or outer) side, 2 acyl side, 3 side chain; on linkers, the order of the positions; unused ones are H or OH. Bridge positions count the residues as written; N and C are the ends. Square brackets hold non-standard residues; d marks the D form. Peptide text beside a SMILES is read from it. * marks the point of attachment. hPhe(3-Cl-4-CF3) = N[C@@H](CCc1ccc(C(F)(F)F)c(Cl)c1)C(=O)O; hPhe(3-F,4-CF3) = N[C@@H](CCc1ccc(C(F)(F)F)c(F)c1)C(=O)O; hPhe(4-CF3) = N[C@@H](CCc1ccc(C(F)(F)F)cc1)C(=O)O; X37 = CC(C)(C)NC(=O)COC[C@H](CC(=O)[*:1])N[*:2]; X102 = O=C([C@H](CCOc1ccc(Cl)cc1)N[*:1])[*:2]; NMePhe(4-Cl) = CN[C@@H](Cc1ccc(Cl)cc1)C(=O)O; NMeGly(cPent) = CN[C@H](C(=O)O)C1CCCC1; mXylylene = c1cc(C[*:1])cc(C[*:2])c1; NMeCha = CN[C@@H](CC1CCCCC1)C(=O)O; Hyp = O=C(O)[C@@H]1C[C@@H](O)CN1; NMeChg = CN[C@H](C(=O)O)C1CCCCC1; NMeF = CN[C@@H](Cc1ccccc1)C(=O)O; NMeD = CN[C@@H](CC(=O)O)C(=O)O; NMeL = CN[C@@H](CC(C)C)C(=O)O; NMeV = CN[C@H](C(=O)O)C(C)C; d(β3hA) = C[C@@H](N)CC(=O)O; Morpholide = C1CN(*)CCO1; NMeA = CN[C@@H](C)C(=O)O; Piperidide = C1CCN(*)CC1; dNMeA = CN[C@H](C)C(=O)O; Ac5c = NC1(C(=O)O)CCCC1; Aze = O=C(O)[C@@H]1CCN1; NBuGly = CCCCNCC(=O)O; Aib = CC(C)(N)C(=O)O; Sar = CNCC(=O)O

Target: protein-protein interaction between Kras and SOS1 (biotin-tagged human Kras loaded with GDP, His-tagged human SOS1) (Homo sapiens (Human), UniProt P01116, G12D)
Experiment: Protein-protein interaction inhibition between Kras and SOS1 (KrasG12D-SOS PPI) using AlphaScreen;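 further: kras produced in E. coli, Ni-coupled donor beads and streptavidin acceptor beads, excitation 680 nm with emission detected at 520–620 nm via singlet oxygen transfer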
Assay type: biochemical
Conditions: AlphaScreen; biotin-tagged human Kras loaded with GDP, His-tagged human SOS1; read-out: KRAS G12D-SOS PPI IC50

Compound | IC50 [nM]
CCCCN1CC(=O)N(C)CC(=O)N(C)[C@@H](Cc2ccc(Cl)cc2)C(=O)N(C)CC(=O)N[C@@H](CCc2ccc(C(F)(F)F)cc2)C(=O)N(C)[C@@H](CC(C)C)C(=O)NC(C)(C)C(=O)N(C)[C@@H](CC(C)C)C(=O)N[C@H](C)CC(=O)N(C)[C@@H](C)C(=O)N[C@@H]([C@@H](C)CC)C1=O [Compound 436] (cyclo([Aib][NMeL][d(β3hA)][NMeA]I[NBuGly][Sar][NMePhe(4-Cl)][Sar][hPhe(4-CF3)][NMeL])) | 160
CC[C@H](C)[C@@H]1NC(=O)[C@H](C)N(C)C(=O)C[C@@H](C(=O)N2CCCCC2)N(C)C(=O)[C@H](C2CCCCC2)N(C)C(=O)C2(CCCC2)NC(=O)[C@@H]2CCCN2C(=O)[C@H](CCOc2ccc(Cl)cc2)NC(=O)CN(C)C(=O)[C@H](CC2CCCCC2)N(C)C(=O)CN(C)C(=O)CN(C)C1=O [Compound 2040, (3S,9S,18S,21S,25S,28S,34S)-3-[2-(4-chlorophenoxy)ethyl]-28-cyclohexyl-9-(cyclohexylmethyl)-7,10,13,16,21,22,26,29-octamethyl-18-[(1S)-1-methylpropyl]-25-(piperidine-1-carbonyl)spiro[1,4,7,10,13,16,19,22,26,29,32-undecazabicyclo[32.3.0]heptatriacontane-31,1-cyclopentane]-2,5,8,11,14,17,20,23,27,30,33-undecone] ([NMeA]I[Sar][Sar][NMeCha][Sar][X102]P[Ac5c][NMeChg][NMeD]-Piperidide; lactam N-11) | 150
CC[C@H](C)[C@@H]1NC(=O)[C@H](C(C)C)N(C)C(=O)C[C@@H](COCC(=O)NC(C)(C)C)NC(=O)[C@H](CC(C)C)N(C)C(=O)C2(CCCC2)NC(=O)[C@H](CC(C)C)N(C)C(=O)[C@H](CCc2ccc(C(F)(F)F)cc2)NC(=O)CN(C)C(=O)[C@H](Cc2ccc(Cl)cc2)N(C)C(=O)CN(C)C(=O)CN(C)C1=O [Compound 759] ([NMeV]I[Sar][Sar][NMePhe(4-Cl)][Sar][hPhe(4-CF3)][NMeL][Ac5c][NMeL]; linker N-C via X37) | 160
CC[C@H](C)[C@@H]1NC(=O)[C@H](C)N(C)C(=O)C[C@@H](C)NC(=O)[C@H](C(C)C)N(C)C(=O)C2(CCCC2)NC(=O)[C@@H]2CCCN2C(=O)[C@H](CCc2ccc(C(F)(F)F)c(Cl)c2)NC(=O)[C@@H](C)N(C)C(=O)[C@H](Cc2ccccc2)N(C)C(=O)[C@@H]2CCCN2C(=O)CN(C)C1=O [Compound 1783] (cyclo([Ac5c][NMeV][d(β3hA)][NMeA]I[Sar]P[NMeF][dNMeA][hPhe(3-Cl-4-CF3)]P)) | 52
CC[C@H](C)[C@@H]1NC(=O)[C@H](CC(C)C)N(C)C(=O)C[C@@H](C)NC(=O)[C@H](C2CCCC2)N(C)C(=O)C2(CCCC2)NC(=O)[C@@H]2CCCN2C(=O)[C@H](CCc2ccc(C(F)(F)F)c(Cl)c2)NC(=O)CN(C)C(=O)[C@H](CC2CCCCC2)N(C)C(=O)[C@@H]2CCN2C(=O)[C@H](C)N(C)C1=O [Compound 1477] (cyclo([Ac5c][NMeGly(cPent)][d(β3hA)][NMeL]I[NMeA][Aze][NMeCha][Sar][hPhe(3-Cl-4-CF3)]P)) | 28
CC[C@H](C)[C@@H]1NC(=O)[C@H](CC(C)C)N(C)C(=O)C[C@@H](C(=O)N2CCCCC2)N(C)C(=O)[C@H](CC(C)C)N(C)C(=O)C2(CCCC2)NC(=O)[C@@H]2C[C@@H](OCc3cccc(C)c3)CN2C(=O)[C@H](CCc2ccc(C(F)(F)F)c(F)c2)NC(=O)CN(C)C(=O)[C@H](CC2CCCCC2)N(C)C(=O)CN(C)C(=O)CN(C)C1=O [Compound 2125] ([NMeL]I[Sar][Sar][NMeCha][Sar][hPhe(3-F,4-CF3)][Hyp](mXylylene)[Ac5c][NMeL][NMeD]-Piperidide; lactam N-11) | 16
CC[C@H](C)[C@@H]1NC(=O)[C@H](CC(C)C)N(C)C(=O)C[C@@H](C(=O)N2CCOCC2)N(C)C(=O)[C@H](C(C)C)N(C)C(=O)C2(CCCC2)NC(=O)[C@@H]2CCCN2C(=O)[C@H](CCc2ccc(C(F)(F)F)c(Cl)c2)NC(=O)CN(C)C(=O)[C@H](CC2CCCCC2)N(C)C(=O)[C@@H]2CCN2C(=O)CN(C)C1=O [Compound 1758] ([NMeL]I[Sar][Aze][NMeCha][Sar][hPhe(3-Cl-4-CF3)]P[Ac5c][NMeV][NMeD]-Morpholide; lactam N-11) | 1.2
CC[C@H](C)[C@@H]1NC(=O)[C@H](C(C)C)N(C)C(=O)C[C@@H](C(=O)N2CCCCC2)NC(=O)[C@H](CC(C)C)N(C)C(=O)C2(CCCC2)NC(=O)[C@H](CC(C)C)N(C)C(=O)[C@H](CCc2ccc(C(F)(F)F)cc2)NC(=O)CN(C)C(=O)[C@H](Cc2ccc(Cl)cc2)N(C)C(=O)CN(C)C(=O)CN(C)C1=O [Compound 610] ([NMeV]I[Sar][Sar][NMePhe(4-Cl)][Sar][hPhe(4-CF3)][NMeL][Ac5c][NMeL]D-Piperidide; lactam N-11) | 150
